Experimental data reported in US12421240B2, “Hydropyrazino[1,2-d][1,4]diazepine compounds for the treatment of autoimmune disease” (Hoffmann-La Roche Inc., priority 2019, dated 2025).

target: T1, human TLR7 (Homo sapiens, UniProt Q9NYK1); assay: HEK293-Blue-hTLR-7 cells assay (SEAP reporter, R848 stimulation); format: cell-based; settings: HEK293-Blue-hTLR7 cells, R848 ligand, 20 hrs; read-out: HEK/hTLR7 IC50
T1 sequence (Q9NYK1 27-1049): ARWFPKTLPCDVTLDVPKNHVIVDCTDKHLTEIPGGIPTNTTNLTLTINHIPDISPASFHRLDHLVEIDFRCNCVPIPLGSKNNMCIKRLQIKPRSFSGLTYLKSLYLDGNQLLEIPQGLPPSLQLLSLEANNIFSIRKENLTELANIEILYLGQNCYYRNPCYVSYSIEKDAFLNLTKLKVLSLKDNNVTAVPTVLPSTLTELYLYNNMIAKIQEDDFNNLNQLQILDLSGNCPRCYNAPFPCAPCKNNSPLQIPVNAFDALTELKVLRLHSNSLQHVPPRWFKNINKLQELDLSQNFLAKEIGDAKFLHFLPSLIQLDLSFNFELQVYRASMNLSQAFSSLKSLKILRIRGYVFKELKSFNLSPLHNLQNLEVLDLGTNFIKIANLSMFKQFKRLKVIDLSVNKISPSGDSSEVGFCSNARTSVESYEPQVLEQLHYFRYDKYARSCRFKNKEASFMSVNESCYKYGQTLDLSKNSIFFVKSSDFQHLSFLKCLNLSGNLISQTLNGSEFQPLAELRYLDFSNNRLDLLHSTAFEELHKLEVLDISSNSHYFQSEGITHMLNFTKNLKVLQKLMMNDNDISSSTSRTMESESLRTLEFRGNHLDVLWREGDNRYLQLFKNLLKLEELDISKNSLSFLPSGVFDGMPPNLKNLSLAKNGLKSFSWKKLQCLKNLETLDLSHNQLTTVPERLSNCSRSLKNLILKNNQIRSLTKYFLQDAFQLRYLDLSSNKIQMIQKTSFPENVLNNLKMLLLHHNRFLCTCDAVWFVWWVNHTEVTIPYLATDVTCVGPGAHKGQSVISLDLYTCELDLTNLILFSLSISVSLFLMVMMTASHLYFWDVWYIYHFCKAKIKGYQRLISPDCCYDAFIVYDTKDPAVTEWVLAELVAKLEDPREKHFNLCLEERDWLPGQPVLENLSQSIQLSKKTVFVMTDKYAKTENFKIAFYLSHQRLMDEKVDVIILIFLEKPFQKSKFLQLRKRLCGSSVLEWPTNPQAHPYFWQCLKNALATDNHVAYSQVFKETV
Description: The following tests were carried out in order to determine the activity of the compounds of formula (I), (Ia) or (Ib) in HEK293-Blue-hTLR-7/8/9 cells assay.
HEK293-Blue-hTLR-7 Cells Assay:
A stable HEK293-Blue-hTLR-7 cell line was purchased from InvivoGen (Cat. #: hkb-htlr7, San Diego, California, USA). These cells were originally designed for studying the stimulation of human TLR7 by monitoring the activation of NF-κB. A SEAP (secreted embryonic alkaline phosphatase) reporter gene was placed under the control of the IFN-β minimal promoter fused to five NF-κB and AP-1-binding sites. The SEAP was induced by activating NF-κB and AP-1 via stimulating HEK-Blue hTLR7 cells with TLR7 ligands. Therefore the reporter expression was declined by TLR7 antagonist under the stimulation of a ligand, such as R848 (Resiquimod), for incubation of 20 hrs. The cell culture supernatant SEAP reporter activity was determined using QUANTI-Blue™ kit (Cat. #: rep-qb1, Invivogen, San Diego, Ca., USA) at a wavelength of 640 nm, a detection medium that turns purple or blue in the presence of alkaline phosphatase.
HEK293-Blue-hTLR7 cells were incubated at a density of 250,000-450,000 cells/mL in a volume of 170 μL in a 96-well plate in Dulbecco's Modified Eagle's medium (DMEM) containing 4.5 g/L glucose, 50 U/mL penicillin, […], […], 2 mM L-glutamine, 10% (v/v) heat-inactivated fetal bovine serum with addition of 20 μL test compound in a serial dilution in the presence of final DMSO at 1% and 10 μL of 20 uM R848 in above DMEM, perform incubation under 37° C. in a CO2 incubator for 20 hrs. Then 20 μL of the supernatant from each well was incubated with 180 μL Quanti-blue substrate solution at 37° C. for 2 hrs and the absorbance was read at 620655 nm using a spectrophotometer. The signaling pathway that TLR7 activation leads to downstream NF-κB activation has been widely accepted, and therefore similar reporter assay was modified for evaluating TLR7 antagonist.

| Compound | IC50 |
| --- | --- |
| C[C@@H]1CN(c2ccc(C#N)c3ncccc23)C[C@@H]2CCN(Cc3ccc(N4C[C@@H](N)[C@@H](F)C4)cn3)CCN21 [Example 20, 5-[(4R,10aS)-8-[[5-[(3R,4S)-3-amino-4-fluoro-pyrrolidin-1-yl]-2-pyridyl]methyl]-4-methyl-1,3,4,6,7,9,10,10a-octahydropyrazino[1,2-d][1,4]diazepin-2-yl]quinoline-8-carbonitrile] | 1.6 nM |
| C[C@@H]1CN(c2ccc(C#N)c3ncccc23)C[C@@H]2CCN(Cc3cc4c(cn3)CNCC4)CCN21 [Example 8, 5-[(4R,10aS)-4-methyl-8-(5,6,7,8-tetrahydro-2,7-naphthyridin-3-ylmethyl)-1,3,4,6,7,9,10,10a-octahydropyrazino[1,2-d][1,4]diazepin-2-yl]quinoline-8-carbonitrile] | 14.3 nM |
| C[C@@H]1CN(c2ccc(C#N)c3ncccc23)C[C@@H]2CCN(c3ccc4c(n3)CNCC4)CCN21 [Example 5, 5-[(4R,10aS)-4-methyl-8-(5,6,7,8-tetrahydro-1,7-naphthyridin-2-yl)-1,3,4,6,7,9,10,10a-octahydropyrazino[1,2-d][1,4]diazepin-2-yl]quinoline-8-carbonitrile] | 38.5 nM |
| C[C@@H]1CN(c2ccc(C#N)c3ncccc23)C[C@@H]2CCN(Cc3cc4c(cn3)CCNC4)CCN21 [Example 9, 5-[(4R,10aS)-4-methyl-8-(5,6,7,8-tetrahydro-2,6-naphthyridin-3-ylmethyl)-1,3,4,6,7,9,10,10a-octahydropyrazino[1,2-d][1,4]diazepin-2-yl]quinoline-8-carbonitrile] | 8.2 nM |
| C[C@@H]1CN(c2ccc(C#N)c3ncccc23)C[C@@H]2CCN(Cc3ncc(N4CCNCC4)cn3)CCN21 [Example 13, 5-[(4R,10aS)-4-methyl-8-[(5-piperazin-1-ylpyrimidin-2-yl)methyl]-1,3,4,6,7,9,10,10a-octahydropyrazino[1,2-d][1,4]diazepin-2-yl]quinoline-8-carbonitrile] | 49.6 nM |
| CO[C@@H]1CN(c2cnc(CN3CC[C@H]4CN(c5ccc(C#N)n6ncc(F)c56)C[C@@H](C)N4CC3)c(F)c2)C[C@H]1N [Example 27, 4-[(4R,10aS)-8-[[5-[(3R,4R)-3-amino-4-methoxy-pyrrolidin-1-yl]-3-fluoro-2-pyridyl]methyl]-4-methyl-1,3,4,6,7,9,10,10a-octahydropyrazino[1,2-d][1,4]diazepin-2-yl]-3-fluoro-pyrazolo[1,5-a]pyridine-7-carbonitrile] | 8.5 nM |
| C[C@@H]1CN(c2ccc(C#N)c3ncccc23)C[C@@H]2CCN(c3ccc4c(n3)CCNC4)CCN21 [Example 6, 5-[(4R,10aS)-4-methyl-8-(5,6,7,8-tetrahydro-1,6-naphthyridin-2-yl)-1,3,4,6,7,9,10,10a-octahydropyrazino[1,2-d][1,4]diazepin-2-yl]quinoline-8-carbonitrile] | 48.1 nM |
| C[C@@H]1CN(c2ccc(C#N)c3ncccc23)C[C@@H]2CCN(c3cc4c(cn3)CNCC4)CCN21 [Example 7, 5-[(4R,10aS)-4-methyl-8-(5,6,7,8-tetrahydro-2,7-naphthyridin-3-yl)-1,3,4,6,7,9,10,10a-octahydropyrazino[1,2-d][1,4]diazepin-2-yl]quinoline-8-carbonitrile] | 61.3 nM |
| C[C@@H]1CN(c2ccc(C#N)c3ncccc23)C[C@@H]2CCN(c3ccc(N4CCNCC4)nc3)CCN21 [Example 1, 5-[(4R,10aS)-4-methyl-8-(6-piperazin-1-yl-3-pyridyl)-1,3,4,6,7,9,10,10a-octahydropyrazino [1,2-d][1,4]diazepin-2-yl]quinoline-8-carbonitrile] | 88.5 nM |
| C[C@@H]1CN(c2ccc(C#N)c3ncccc23)C[C@@H]2CCN(c3cnc(N4CCNCC4)nc3)CCN21 [Example 2, 5-[(4R,10aS)-4-methyl-8-(2-piperazin-1-ylpyrimidin-5-yl)-1,3,4,6,7,9,10,10a-octahydropyrazino[1,2-d][1,4]diazepin-2-yl]quinoline-8-carbonitrile] | 58.6 nM |
| C[C@@H]1CN(c2ccc(C#N)c3ncccc23)C[C@@H]2CCN(Cc3ccc(N4CCNCC4)cn3)CCN21 [Example 19, 5-[(4R,10aS)-4-methyl-8-[(5-piperazin-1-yl-2-pyridyl)methyl]-1,3,4,6,7,9,10,10a-octahydropyrazino[1,2-d][1,4]diazepin-2-yl]quinoline-8-carbonitrile] | 4.8 nM |
| C[C@@H]1CN(c2ccc(C#N)c3ncccc23)C[C@@H]2CCN(Cc3cnc4c(c3)CNCC4)CCN21 [Example 10, 5-[(4R,10aS)-4-methyl-8-(5,6,7,8-tetrahydro-1,6-naphthyridin-3-ylmethyl)-1,3,4,6,7,9,10,10a-octahydropyrazino[1,2-d][1,4]diazepin-2-yl]quinoline-8-carbonitrile] | 9.3 nM |
| C[C@@H]1CN(c2ccc(C#N)c3ncccc23)C[C@@H]2CCN(Cc3cncc(N4CCNCC4)c3)CCN21 [Example 16, 5-[(4R,10aS)-4-methyl-8-[(5-piperazin-1-yl-3-pyridyl)methyl]-1,3,4,6,7,9,10,10a-octahydropyrazino[1,2-d][1,4]diazepin-2-yl]quinoline-8-carbonitrile] | 11.1 nM |
| C[C@@H]1CN(c2ccc(C#N)c3ncccc23)C[C@@H]2CCN(c3cncc4c3CCNC4)CCN21 [Example 4, 5-[(4R,10aS)-4-methyl-8-(5,6,7,8-tetrahydro-2,7-naphthyridin-4-yl)-1,3,4,6,7,9,10,10a-octahydropyrazino[1,2-d][1,4]diazepin-2-yl]quinoline-8-carbonitrile] | 17.8 nM |
| CO[C@@H]1CN(c2cnc(CN3CC[C@H]4CN(c5ccc(C#N)n6nccc56)C[C@@H](C)N4CC3)c(F)c2)C[C@H]1N [Example 26, 4-[(4R,10aS)-8-[[5-[(3R,4R)-3-amino-4-methoxy-pyrrolidin-1-yl]-3-fluoro-2-pyridyl]methyl]-4-methyl-1,3,4,6,7,9,10,10a-octahydropyrazino[1,2-d][1,4]diazepin-2-yl]pyrazolo[1,5-a]pyridine-7-carbonitrile] | 35.8 nM |
| C[C@@H]1CN(c2ccc(C#N)c3ncccc23)C[C@@H]2CCN(Cc3ccc4c(c3)CNCC4)CCN21 [Example 12, 5-[(4R,10aS)-4-methyl-8-(1,2,3,4-tetrahydroisoquinolin-7-ylmethyl)-1,3,4,6,7,9,10,10a-octahydropyrazino[1,2-d][1,4]diazepin-2-yl]quinoline-8-carbonitrile] | 4.5 nM |
| CO[C@@H]1CN(c2ccc(CN3CC[C@H]4CN(c5ccc(C#N)c6ncccc56)C[C@@H](C)N4CC3)nc2)C[C@H]1N [Example 22, 5-[(4R,10aS)-8-[[5-[(3R,4R)-3-amino-4-methoxy-pyrrolidin-1-yl]-2-pyridyl]methyl]-4-methyl-1,3,4,6,7,9,10,10a-octahydropyrazino[1,2-d][1,4]diazepin-2-yl]quinoline-8-carbonitrile] | 4.9 nM |
| C[C@@H]1CN(c2ccc(C#N)c3ncccc23)C[C@@H]2CCN(Cc3cccc(N4CCNCC4)n3)CCN21 [Example 18, 5-[(4R,10aS)-4-methyl-8-[(6-piperazin-1-yl-2-pyridyl)methyl]-1,3,4,6,7,9,10,10a-octahydropyrazino[1,2-d][1,4]diazepin-2-yl]quinoline-8-carbonitrile] | 12.1 nM |
